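Protocol summary: plate cells (96-well), add compound at 5 concentrations, incubate 48 h, interpolate endpoints linearly. TGI: concentration producing complete growth inhibition.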
What was measured:
Test in all cases: NCI anticancer screen, dose series, 48 h
[1] = test system: DMS 114 small cell lung
[2] = test system: HOP-18 NSCLC
[3] = test system: SK-MEL-28 melanoma
[4] = test system: XF 498 CNS
[5] = test system: UACC-257 melanoma
[6] = test system: IGROV1 ovarian
[7] = test system: LOX IMVI melanoma
[8] = test system: HCT-116 colon
[9] = test system: SF-268 CNS
[10] = test system: OVCAR-5 ovarian
[11] = test system: K-562 leukemia
[12] = test system: A498 renal
[13] = test system: HL-60(TB) leukemia
[14] = test system: SNB-78 CNS
[15] = test system: MALME-3M melanoma
[16] = test system: HT29 colon
[17] = test system: NCI-H460 lung
[18] = test system: NCI-H23 lung
[19] = test system: SW-620 colon
[20] = test system: TK-10 renal
[21] = test system: ACHN renal
[22] = test system: RXF-631 renal
[23] = test system: 786-0 renal
[24] = test system: MOLT-4 leukemia
[25] = test system: SNB-19 CNS
[26] = test system: COLO 205 colon
[27] = test system: KM20L2 colon
[28] = test system: CAKI-1 renal
[29] = test system: UO-31 renal
[30] = test system: SF-295 CNS
[31] = test system: DLD-1 colon
[32] = test system: SN12C renal
[33] = test system: HCC-2998 colon
[34] = test system: SR leukemia
[35] = test system: HCT-15 colon
[36] = test system: SK-OV-3 ovarian
[37] = test system: LXFL 529 NSCLC
[38] = test system: A549 NSCLC
[39] = test system: SF-539 CNS
[40] = test system: UACC-62 melanoma
[41] = test system: KM12 colon
[42] = test system: SNB-75 CNS
[43] = test system: HOP-92 NSCLC
[44] = test system: CCRF-CEM leukemia
[45] = test system: OVCAR-8 ovarian
[46] = test system: SK-MEL-2 melanoma
[47] = test system: U251 CNS
[48] = test system: OVCAR-4 ovarian
[49] = test system: DMS 273 small cell lung
[50] = test system: M19-MEL melanoma
[51] = test system: OVCAR-3 ovarian
[52] = test system: NCI-H226 lung
[53] = test system: EKVX NSCLC
[54] = test system: M14 melanoma
[55] = test system: SK-MEL-5 melanoma

Measured: TGI

CCCCCCCCc1cc2c(O)c(c1)Cc1cc(CCCCCCCC)cc(c1O)Cc1cc(CCCCCCCC)cc(c1O)Cc1cc(CCCCCCCC)cc(c1O)Cc1cc(CCCCCCCC)cc(c1O)Cc1cc(CCCCCCCC)cc(c1O)C2
> 100 µM: [1] | [2] | [3] | [4] | [5] | [6] | [7] | [8] | [9] | [10] | [11] | [12] | [13] | [14] | [15] | [16] | [17] | [18] | [19] | [20] | [21] | [22] | [23] | [24] | [25] | [26] | [27] | [28] | [29] | [30] | [31] | [32] | [33] | [34] | [35] | [36] | [37] | [38] | [39] | [40] | [41] | [42] | [43] | [44] | [45] | [46] | [47]

CC[C@@H]1NC(C(=O)OC)Cc2c1[nH]c1ccccc21 (stereo not given in full)
> 100 µM: [1] | [48] | [2] | [3] | [5] | [6] | [7] | [8] | [10] | [11] | [12] | [13] | [14] | [15] | [16] | [49] | [17] | [18] | [19] | [50] | [20] | [51] | [52] | [21] | [22] | [23] | [24] | [25] | [26] | [27] | [28] | [29] | [30] | [31] | [53] | [32] | [54] | [33] | [34] | [35] | [36] | [37] | [38] | [39] | [40] | [41] | [42] | [43] | [44] | [45] | [55] | [46] | [47]
